Results reported in ChEMBL document CHEMBL1125272, “Synthetic approaches to the guanosine and xanthosine analogues 5-amino-3-beta-D-ribofuranosylpyrazolo[3,4-e][1,3]oxazin-7-one and 3-beta-D-ribofuranosylpyrazolo[3,4-e][1,3]oxazine-5,7-dione and studies of their antitumor potential” (J Med Chem, 1991).

System: L1210
Assay: Capacity to inhibit tumor cells in vitro using L1210 murine leukemia cells
Format: functional, cell-based
Conditions: Mus musculus

| IC50 [µM] | SMILES |
| --- | --- |
| 100 | NC1=NC(=O)C2N=NC([C@@H]3O[C@H](CO)[C@@H](O)[C@H]3O)=C2O1 (some centres not stated) |
| 0.2 | O=c1[nH]c(=O)c2[nH]nc([C@@H]3O[C@H](CO)[C@@H](O)[C@H]3O)c2o1 |
